{"source": "ChEMBL document CHEMBL5661943", "about": "“ASAP - In vitro antiviral effect” (2024)", "key": {"Zika virus [1]": {"system": "Zika virus", "test": "EC50 is reported via analysis of immunofluorescence staining. The assay has been performed by Icahn School of Medicine at Mount Sinai.", "format": "functional, organism-based, Chlorocebus sabaeus, VeroE6/TMPRSS2", "conditions": "for EC90: P-gp concentration 2 uM, P-gp inhibitor Elacidar"}, "dengue virus type 2 [2]": {"system": "dengue virus type 2", "test": "(§1) Functional immunofluorescence assay to measure dose dependent changes in antiviral-drug inhibitory efficacy against Dengue virus type 2 Thailand/16681/84 in Vero E6/TMPRSS2 cells (cotreated with P-gp inhibitor, Elacridar). Cells are treated with antiviral candidates that are serially diluted, following infection, cells are fixed. EC50 is reported via analysis of immunofluorescence staining. The assay has been performed by Icahn School of Medicine at Mount Sinai.", "format": "organism-based, Chlorocebus sabaeus, VeroE6/TMPRSS2", "conditions": "Dengue virus; for EC90: P-gp concentration 2 uM, P-gp inhibitor Elacidar"}, "Zika virus [3]": {"system": "Zika virus", "test": "as §1, with “Zika” for “Dengue”, “PRVABC59” for “type 2 Thailand/16681/84”, “cells.” for “cells (cotreated with P-gp inhibitor, Elacridar).”", "format": "organism-based, Chlorocebus sabaeus", "conditions": "for EC50: VeroE6/TMPRSS2"}, "dengue virus type 2 [4]": {"system": "dengue virus type 2", "test": "as §1, with “cells.” for “cells (cotreated with P-gp inhibitor, Elacridar).”", "format": "organism-based, Chlorocebus sabaeus", "conditions": "for EC50: VeroE6/TMPRSS2"}, "dengue virus type 2 [5]": {"system": "dengue virus type 2", "test": "Functional assay to measure dose dependent changes in antiviral-drug inhibitory efficacy against Dengue virus type 2 New Guinea C in Vero E6 miRFP670 cells (cotreated with P-gp inhibitor, CP100356). Cells are treated with antiviral candidates that are serially diluted, following infection, cells are fixed. EC50 is reported via analysis of fluorescence intensity using high-content imager. The …", "format": "organism-based, Chlorocebus sabaeus, Vero C1008", "conditions": "Dengue virus; for EC90: P-gp concentration 500 nM, P-gp inhibitor CP100356"}, "Zika virus [6]": {"system": "Zika virus", "test": "Functional CPE-based assay to measure dose dependent changes in antiviral-drug inhibitory efficacy against Zika virus MR766 in Vero E6 miRFP670 cells. Cells are treated with antiviral candidates that are serially diluted. EC50 is reported via analysis of MTS assay as a readout of CPE. The assay has been performed by KU Leuven.", "format": "organism-based, Chlorocebus sabaeus, Vero C1008", "conditions": "Zika virus; for EC50: Vero C1008"}}, "note": "“And” between values parts separate entries of the source, which are not always exact repeats. Equal entries are not always repeated.", "data": [{"smiles": "Cc1cc(CN)cc(NC(=O)c2cc(Cl)cc(NC(=O)OCc3ccccc3)c2)c1", "values": [{"measurement": "EC90", "setting": "Zika virus [1]; Baseline response 0 %, Hill slope -0.823, Maximum measured 127.605 %, Maximum response 100 %, Minimum measured 3.711 %, R squared 0.613", "result": "> 5.56", "unit": "µM"}, {"measurement": "EC90", "setting": "Zika virus [1]; Zika virus, VeroE6/TMPRSS2, Baseline response 0 %, Hill slope -1.09, Maximum measured 145.706 %, Maximum response 100 %, Minimum measured 48.4 %, R squared 0.191", "result": "> 3.33", "unit": "µM"}, {"measurement": "EC50", "setting": "Zika virus [1]; veroe6/tmprss2", "result": "3.14 µM and 0.66 µM"}, {"measurement": "EC50", "setting": "dengue virus type 2 [2]; VeroE6/TMPRSS2", "result": "> 1.85", "unit": "µM"}, {"measurement": "EC90", "setting": "dengue virus type 2 [2]; VeroE6/TMPRSS2, Maximum measured 126.603 %, Minimum measured 82.463 %", "result": "> 1.85", "unit": "µM"}, {"measurement": "EC50", "setting": "Zika virus [3]", "result": "> 50", "unit": "µM"}, {"measurement": "EC90", "setting": "Zika virus [3]; VeroE6/TMPRSS2, Maximum measured 728.77 %, Minimum measured 52.412 %", "result": "> 50", "unit": "µM"}, {"measurement": "EC50", "setting": "dengue virus type 2 [4]", "result": "> 5.56", "unit": "µM"}, {"measurement": "EC90", "setting": "dengue virus type 2 [4]; VeroE6/TMPRSS2, Maximum measured 117.926 %, Minimum measured 57.292 %", "result": "> 5.56", "unit": "µM"}]}, {"smiles": "CCc1cc(C(=O)Nc2cccc(CN)c2)sc1-c1ccc(Cl)cc1", "values": [{"measurement": "EC50", "setting": "Zika virus [1]; Zika virus, VeroE6/TMPRSS2", "result": "> 50", "unit": "µM"}, {"measurement": "EC90", "setting": "Zika virus [1]; Zika virus, VeroE6/TMPRSS2, Baseline response 0 %, Hill slope -0.283, Maximum measured 157.581 %, Maximum response 100 %, Minimum measured 60.948 %, R squared 0.14", "result": "> 50", "unit": "µM"}, {"measurement": "EC50", "setting": "dengue virus type 2 [2]; VeroE6/TMPRSS2", "result": 1.48, "unit": "µM"}, {"measurement": "EC90", "setting": "dengue virus type 2 [2]; VeroE6/TMPRSS2, Baseline response 0 %, Hill slope -0.734, Maximum measured 115.481 %, Maximum response 100 %, Minimum measured 26.383 %, R squared 0.805", "result": "> 5.56", "unit": "µM"}, {"measurement": "EC50", "setting": "dengue virus type 2 [4]", "result": 0.04, "unit": "µM"}, {"measurement": "EC90", "setting": "dengue virus type 2 [4]; VeroE6/TMPRSS2, Baseline response 0 %, EC90 CI (lower) 0 uM, EC90 CI (upper) […] uM, Hill slope -0.657, Maximum measured 73.173 %, Maximum response 100 %, Minimum measured 2.32 %, R squared 0.658", "result": 1.14, "unit": "µM"}, {"measurement": "EC50", "setting": "dengue virus type 2 [5]; Vero C1008", "result": 7.88, "unit": "µM"}, {"measurement": "EC90", "setting": "dengue virus type 2 [5]; Vero C1008, Baseline response 0 %, EC90 CI (lower) 5.869 uM, EC90 CI (upper) 6.978 uM, Hill slope -10.543, Maximum measured 99.815 %, Maximum response 100 %, Minimum measured 0.348 %, R squared 0.992", "result": 9.71, "unit": "µM"}]}, {"smiles": "O=C(Nc1ccc2c(c1)CNC2)c1cc(Br)cc2[nH]c(-c3ccccc3)nc12", "values": [{"measurement": "EC50", "setting": "Zika virus [1]; Zika virus, VeroE6/TMPRSS2", "result": "> 5.56", "unit": "µM"}, {"measurement": "EC90", "setting": "Zika virus [1]; Zika virus, VeroE6/TMPRSS2, Maximum measured 77.487 %, Minimum measured 34.255 %", "result": "> 5.56", "unit": "µM"}, {"measurement": "EC50", "setting": "dengue virus type 2 [2]; VeroE6/TMPRSS2", "result": "> 50", "unit": "µM"}, {"measurement": "EC90", "setting": "dengue virus type 2 [2]; VeroE6/TMPRSS2, Maximum measured 303.364 %, Minimum measured 144.726 %", "result": "> 50", "unit": "µM"}, {"measurement": "EC50", "setting": "Zika virus [6]", "result": "< 0.391", "unit": "µM"}, {"measurement": "EC90", "setting": "Zika virus [6]; Vero C1008, Baseline response 0 %, Hill slope -0.169, Maximum measured 22.843 %, Maximum response 100 %, Minimum measured -3.22 %, R squared 0.045", "result": "< 0.391", "unit": "µM"}, {"measurement": "EC50", "setting": "dengue virus type 2 [5]; Vero C1008", "result": "> 50", "unit": "µM"}, {"measurement": "EC90", "setting": "dengue virus type 2 [5]; Vero C1008, Baseline response 0 %, Hill slope -0.881, Maximum measured 119.709 %, Maximum response 100 %, Minimum measured 77.354 %, R squared 0.142", "result": "> 50", "unit": "µM"}]}, {"smiles": "O=C(NS(=O)(=O)C1CC1)c1cc(Cl)ccc1NS(=O)(=O)c1ccc(Oc2ccccc2Cl)cc1", "values": [{"measurement": "EC50", "setting": "Zika virus [1]; Zika virus, VeroE6/TMPRSS2", "result": 45.9, "unit": "µM"}, {"measurement": "EC90", "setting": "Zika virus [1]; Zika virus, VeroE6/TMPRSS2, Baseline response 0 %, Hill slope -22.702, Maximum measured 122.036 %, Maximum response 100 %, Minimum measured 12.187 %, R squared 0.505", "result": "> 50", "unit": "µM"}, {"measurement": "EC50", "setting": "dengue virus type 2 [2]; VeroE6/TMPRSS2", "result": 42.5, "unit": "µM"}, {"measurement": "EC90", "setting": "dengue virus type 2 [2]; VeroE6/TMPRSS2, Baseline response 0 %, Hill slope -20.818, Maximum measured 101.748 %, Maximum response 70 %, Minimum measured 2.339 %, R squared 0.5", "result": 47.3, "unit": "µM"}, {"measurement": "EC50", "setting": "Zika virus [6]", "result": "> 50", "unit": "µM"}, {"measurement": "EC90", "setting": "Zika virus [6]; Vero C1008, Baseline response 0 %, Hill slope 1.706, Maximum measured 45.349 %, Maximum response 100 %, Minimum measured -3.564 %, R squared 0.879", "result": "> 50", "unit": "µM"}, {"measurement": "EC50", "setting": "dengue virus type 2 [5]; Vero C1008", "result": 44.5, "unit": "µM"}, {"measurement": "EC90", "setting": "dengue virus type 2 [5]; Vero C1008, Baseline response 0 %, Hill slope -56.608, Maximum measured 108.404 %, Maximum response 100 %, Minimum measured 0.137 %, R squared 0.959", "result": 46.3, "unit": "µM"}]}, {"smiles": "O=C(O)COc1cccc(NC(=O)c2cc(Cl)cc(NC(=O)OCc3ccccc3)c2)c1", "values": [{"measurement": "EC50", "setting": "Zika virus [1]; Zika virus, VeroE6/TMPRSS2", "result": "> 50", "unit": "µM"}, {"measurement": "EC90", "setting": "Zika virus [1]; Zika virus, VeroE6/TMPRSS2, Baseline response 0 %, Hill slope 0.101, Maximum measured 106.686 %, Maximum response 100 %, Minimum measured 54.693 %, R squared 0.072", "result": "> 50", "unit": "µM"}, {"measurement": "EC50", "setting": "dengue virus type 2 [2]; VeroE6/TMPRSS2", "result": "> 50", "unit": "µM"}, {"measurement": "EC90", "setting": "dengue virus type 2 [2]; VeroE6/TMPRSS2, Maximum measured 97.013 %, Minimum measured 38.667 %", "result": "> 50", "unit": "µM"}, {"measurement": "EC50", "setting": "Zika virus [6]", "result": "> 50", "unit": "µM"}, {"measurement": "EC90", "setting": "Zika virus [6]; Vero C1008, Maximum measured -[…], Minimum measured -2.209 %", "result": "> 50", "unit": "µM"}, {"measurement": "EC50", "setting": "dengue virus type 2 [5]; Vero C1008", "result": "> 50", "unit": "µM"}, {"measurement": "EC90", "setting": "dengue virus type 2 [5]; Vero C1008, Maximum measured 107.555 %, Minimum measured 104.836 %", "result": "> 50", "unit": "µM"}]}, {"smiles": "O=C(O)c1cc(Cl)ccc1NS(=O)(=O)c1ccc(Oc2ccccc2Cl)cc1", "values": [{"measurement": "EC50", "setting": "Zika virus [3]", "result": "> 50", "unit": "µM"}, {"measurement": "EC90", "setting": "Zika virus [3]; VeroE6/TMPRSS2, Baseline response 0 %, Hill slope 0.308, Maximum measured 143.489 %, Maximum response 100 %, Minimum measured 67.888 %, R squared 0.041", "result": "> 50", "unit": "µM"}, {"measurement": "EC50", "setting": "dengue virus type 2 [4]", "result": "< 0.023", "unit": "µM"}, {"measurement": "EC90", "setting": "dengue virus type 2 [4]; VeroE6/TMPRSS2, Baseline response 0 %, Hill slope -0.289, Maximum measured 50.892 %, Maximum response 100 %, Minimum measured 16.572 %, R squared 0.294", "result": "> 5.56", "unit": "µM"}]}]}
